Tests used:
HeLa = assay: Ratio of GI50 for methyl methane sulphonate to drug in human HeLa B cells; format: functional
[1] = biological target: Poly [ADP-ribose] polymerase 1 (Homo sapiens, UniProt P09874); assay: Inhibition of PARP1
Sequence of Poly [ADP-ribose] polymerase 1 (P09874 whole entry): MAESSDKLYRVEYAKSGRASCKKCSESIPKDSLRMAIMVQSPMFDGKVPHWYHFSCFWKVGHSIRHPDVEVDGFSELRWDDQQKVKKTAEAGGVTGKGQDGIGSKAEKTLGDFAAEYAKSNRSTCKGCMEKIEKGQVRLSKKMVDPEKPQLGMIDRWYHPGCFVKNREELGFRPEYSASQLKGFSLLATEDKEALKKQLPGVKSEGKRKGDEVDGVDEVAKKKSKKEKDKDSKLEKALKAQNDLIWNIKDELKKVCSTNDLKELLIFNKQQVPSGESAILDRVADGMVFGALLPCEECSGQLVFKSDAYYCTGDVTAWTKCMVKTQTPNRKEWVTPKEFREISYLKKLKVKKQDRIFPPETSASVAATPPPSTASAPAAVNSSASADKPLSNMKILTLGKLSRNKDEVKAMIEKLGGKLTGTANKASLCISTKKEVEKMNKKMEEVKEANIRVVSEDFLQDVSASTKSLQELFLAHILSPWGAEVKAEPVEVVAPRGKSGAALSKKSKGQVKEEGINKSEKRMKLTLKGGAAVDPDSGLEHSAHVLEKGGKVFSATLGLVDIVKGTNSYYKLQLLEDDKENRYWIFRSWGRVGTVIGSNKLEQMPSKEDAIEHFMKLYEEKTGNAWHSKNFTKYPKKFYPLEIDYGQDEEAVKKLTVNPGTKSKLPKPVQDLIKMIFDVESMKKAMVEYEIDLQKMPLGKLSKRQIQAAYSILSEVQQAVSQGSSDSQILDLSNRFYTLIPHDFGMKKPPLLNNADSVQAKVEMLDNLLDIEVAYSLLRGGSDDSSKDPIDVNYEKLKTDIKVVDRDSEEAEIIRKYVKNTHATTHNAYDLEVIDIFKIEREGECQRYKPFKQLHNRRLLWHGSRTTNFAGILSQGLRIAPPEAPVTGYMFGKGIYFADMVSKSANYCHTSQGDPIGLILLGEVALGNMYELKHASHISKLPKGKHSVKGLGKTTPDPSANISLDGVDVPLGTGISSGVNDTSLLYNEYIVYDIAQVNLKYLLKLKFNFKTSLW

IC50 [1] | SMILES | PF50 (HeLa)
0.002 µM | O=C(c1cccc(Cc2n[nH]c(=O)c3ccccc23)c1)N1CCNCC1 | 2.7
0.061 µM | NC(=O)c1ccccc1OCc1ccc(F)c(C(=O)N2CCNCC2)c1 | 1.4
0.029 µM | NC(=O)c1cc(F)ccc1OCc1ccc(F)c(C(=O)N2CCNCC2)c1 | 1.6
0.24 µM | NC(=O)c1cc(F)c(F)cc1OCc1ccc(F)c(C(=O)N2CCNCC2)c1 | 1.08
 | CC(Oc1ccccc1)C(=O)N1CCN(C(=O)c2cc(CCOc3ccccc3C(N)=O)ccc2F)CC1 (stereo unspecified) | 1.5
> 10 µM | NC(=O)c1c(F)ccc(F)c1OCc1ccc(F)c(C(=O)N2CCNCC2)c1 | 
1.5 µM | NC(=O)c1cc(F)cc(F)c1OCc1ccc(F)c(C(=O)N2CCNCC2)c1 | 0.9
0.024 µM | NC(=O)c1ccccc1OCc1ccc(F)c(C(=O)N2CCN(C(=O)C3CCCC3)CC2)c1 | 1.96
0.05 µM | CC(Oc1ccccc1)C(=O)N1CCN(C(=O)c2cc(COc3ccccc3C(N)=O)ccc2F)CC1 (stereo unspecified) | 3.7
0.188 µM | NC(=O)c1ccccc1OCc1cccc(C(=O)N2CCN(C(=O)C3CCCC3)CC2)c1 | 1.1
0.2 µM | NC(=O)c1ccccc1OCCc1cccc(C(=O)N2CCN(C(=O)C3CCCC3)CC2)c1 | 
0.008 µM | O=C(c1cccc(Cc2n[nH]c(=O)c3ccccc23)c1)N1CCN(C(=O)C2CCCC2)CC1 | 4.8
0.25 µM | NC(=O)c1ccc(F)cc1OCc1ccc(F)c(C(=O)N2CCNCC2)c1 | 1.2
> 10 µM | NC(=O)c1ccccc1OCCc1ccc(F)c(C(=O)N2CCNCC2)c1 | 
 | NC(=O)c1cc(F)ccc1OCc1ccc(F)c(C(=O)N2CCN(C(=O)C3CCCC3)CC2)c1 | 1.5
0.036 µM | CC(Oc1ccccc1)C(=O)N1CCN(C(=O)c2cccc(COc3ccccc3C(N)=O)c2)CC1 (stereo unspecified) | 2
0.2 µM | CC(Oc1ccccc1)C(=O)N1CCN(C(=O)c2cccc(CCOc3ccccc3C(N)=O)c2)CC1 (stereo unspecified) | 

SMILES | IC50 [1] | PF50 (HeLa)
CC(Oc1ccccc1)C(=O)N1CCN(C(=O)c2cc(COc3ccc(F)cc3C(N)=O)ccc2F)CC1 (stereo unspecified) | 0.014 µM | 1.12
CC(Oc1ccccc1)C(=O)N1CCN(C(=O)c2cccc(Cc3n[nH]c(=O)c4ccccc34)c2)CC1 (stereo unspecified) | 0.005 µM | 29.7
NC(=O)c1ccccc1OCc1cccc(C(=O)N2CCNCC2)c1 | 0.018 µM | 1.3
NC(=O)c1ccccc1OCCc1cccc(C(=O)N2CCNCC2)c1 | 0.97 µM | 1.06

— ChEMBL document CHEMBL1155090, “Novel alkoxybenzamide inhibitors of poly(ADP-ribose) polymerase” (Bioorg Med Chem Lett, 2008)
